Reference: patent publication US20250144067A1, “PERSONALIZED STARVATION THERAPY FOR CANCER” (Faeth Therapeutics, Inc., priority 2021, published 2025)
Structures can show the parent of a compound that is named as a salt. Where two headings read alike, the source gives them in different places.

Columns and labels:
[1] = system: NCI-H292 lung cancer cells; assay: FDA drug screening, complete media vs cholesterol-free media with simvastatin (TABLE 2); assay type: cell-based, human
[2] = system: NCI-H292 lung cancer cells; assay: FDA drug screening, complete media vs cholesterol-free media without statin (TABLE 1); assay type: cell-based, human
[3] = NCI-H292 cells, cholesterol-free media with simvastatin 0.04 μM, cell growth value in FDA drug screen
[4] = NCI-H292 cells, complete media, cell growth value in FDA drug screen
[5] = complete media minus cholesterol-free media + simvastatin, >0 enhanced anti-cancer activity, about 0 neutral, <0 antagonist
[6] = Complete minus Cholesterol-free, greater than 0 enhanced anti-cancer activity, about 0 neutral, below 0 antagonist
[7] = NCI-H292 cells, FDA drug library screen, cholesterol-free media without statin
[8] = NCI-H292 cells, FDA drug library screen, complete media
[9] = NCI-H292 cells, drug in cholesterol-free media with simvastatin 0.04 μM
[10] = NCI-H292 cells, drug in complete media
[11] = complete media vs cholesterol-free media + simvastatin (0.04 μM), >0 enhanced anti-cancer activity, about 0 neutral, <0 antagonist
[12] = NCI-H292 cells, cholesterol-free media without statin
[13] = complete vs cholesterol-free media, greater than 0 enhanced anti-cancer activity, about 0 neutral, below 0 antagonists
[14] = NCI-H292 cells, FDA library drug in cholesterol-free media with simvastatin 0.04 μM
[15] = NCI-H292 cells, FDA library drug in complete media
[16] = Complete minus Cholesterol-free, >0 enhanced anti-cancer activity, about 0 neutral, <0 antagonist
[17] = NCI-H292 cells, cholesterol-free media without statin, FDA drug library screen
[18] = NCI-H292 cells, complete media, FDA drug library screen
[19] = complete vs cholesterol-free media, >0 enhanced anti-cancer activity, about 0 neutral, <0 antagonist
[20] = NCI-H292 cells, FDA drug library screen, cholesterol-free media with simvastatin 0.04 μM
[21] = Complete minus Cholesterol-free, greater than 0 enhanced anti-cancer activity, about 0 neutral, below 0 antagonists
[22] = NCI-H292 cells in cholesterol-free media without statin
[23] = NCI-H292 cells in complete media
[24] = NCI-H292 cells, cholesterol-free media with simvastatin 0.04 μM, FDA drug library screen (TABLE 2)
[25] = NCI-H292 cells, complete media, FDA drug library screen (TABLE 2)
[26] = complete media minus cholesterol-free media + simvastatin (0.04 μM), >0 enhanced anti-cancer activity, about 0 neutral, <0 antagonist

O=c1[nH]c2ccccc2n1CCCN1CCC(n2c(=O)[nH]c3cc(Cl)ccc32)CC1 [Domperidone]
Cholesterol-free media + simvastatin (0.04 μM) [1, 3]: 0.9833 | Complete Media [1, 4]: 1.061 | Difference [1, 5]: 0.08 | Difference [2, 6]: −0.14 | Cholesterol-free [2, 7]: 1.085 | Complete [2, 8]: 0.9412

Nc1ncnc2c1ncn2[C@@H]1O[C@H](CO)[C@@H](O)[C@@H]1O [Vidarabine]
Cholesterol-free media + simvastatin (0.04 μM) [1, 9]: 0.9857 | Complete Media [1, 10]: 0.8059 | Difference [1, 11]: −0.18 | Cholesterol-free [2, 12]: 1.542 | Complete ([2]; NCI-H292 cells, complete media): 1.194 | Difference [2, 13]: −0.35

CC(=O)S[C@@H]1CC2=CC(=O)CC[C@]2(C)[C@H]2CC[C@@]3(C)[C@@H](CC[C@@]34CCC(=O)O4)[C@H]12 [Spironolactone]
Cholesterol-free media + simvastatin (0.04 μM) [1, 14]: 1.784 | Complete Media [1, 15]: 1.272 | Difference [1, 11]: −0.51 | Difference [2, 16]: 0.03 | Cholesterol-free [2, 17]: 1.102 | Complete [2, 18]: 1.134

Benztropine (mesylate)
Cholesterol-free media + simvastatin (0.04 μM) [1]: 0.7872 | Complete Media [1]: 0.8586 | Difference [1]: 0.07 | Cholesterol-free [2]: 0.859 | Complete [2]: 0.7883 | Difference [2]: −0.07

C/C(=C\C(=O)OCCCCCCCCC(=O)O)C[C@@H]1OC[C@H](C[C@@H]2O[C@H]2[C@@H](C)[C@H](C)O)[C@@H](O)[C@H]1O [Mupirocin]
Cholesterol-free media + simvastatin (0.04 μM) [1, 14]: 1.454 | Complete Media [1, 15]: 1.069 | Difference [1, 11]: −0.38 | Cholesterol-free [2, 17]: 0.7089 | Complete [2, 18]: 1.063 | Difference [2, 19]: 0.35

C[C@H]1COc2c(N3CCN(C)CC3)c(F)cc3c(=O)c(C(=O)O)cn1c23 [Levofloxacin (hydrate)]
Cholesterol-free media + simvastatin (0.04 μM) [1, 20]: 1.078 | Complete Media [1, 8]: 0.9583 | Difference [1, 11]: −0.12 | Difference [2, 21]: −0.48 | Cholesterol-free [2, 22]: 1.308 | Complete [2, 23]: 0.8243

OC(CCCN1CCCCC1)(c1ccccc1)c1ccccc1 [Diphenidol (hydrochloride)]
Cholesterol-free media + simvastatin (0.04 μM) [1, 20]: 0.9412 | Complete Media [1, 8]: 1.206 | Difference [1, 5]: 0.26 | Cholesterol-free [2, 12]: 1.3 | Complete ([2]; NCI-H292 cells, complete media): 0.8776 | Difference [2, 13]: −0.42

O=S(=O)(O)CCS [Mesna]
Cholesterol-free media + simvastatin (0.04 μM) [1, 20]: 1.227 | Complete Media [1, 8]: 1.122 | Difference [1, 11]: −0.10 | Difference [2, 16]: −0.29 | Cholesterol-free [2, 12]: 1.145 | Complete ([2]; NCI-H292 cells, complete media): 0.8536

CC(=O)O[C@]1(C(C)=O)CC[C@H]2[C@@H]3C[C@H](C)C4=CC(=O)C=C[C@]4(C)[C@@]3(F)[C@@H](O)C[C@@]21C [Fluorometholone acetate]
Cholesterol-free media + simvastatin (0.04 μM) [1, 20]: 0.6176 | Complete Media [1, 8]: 0.9441 | Difference [1, 5]: 0.33 | Cholesterol-free [2, 12]: 0.9866 | Complete ([2]; NCI-H292 cells, complete media): 0.5758 | Difference [2, 13]: −0.41

CC1OC2(CS1)CN1CCC2CC1 (centres unmarked) [Cevimeline (hydrochloride hemihydrate)]
Cholesterol-free media + simvastatin (0.04 μM) [1, 24]: 0.9444 | Complete Media [1, 25]: 0.9482 | Difference [1, 26]: 0.00 | Cholesterol-free [2, 17]: 0.5656 | Complete [2, 18]: 1.046 | Difference [2, 19]: 0.48

NC(CO)C(=O)NNCc1ccc(O)c(O)c1O (centres unmarked) [Benserazide (hydrochloride)]
Cholesterol-free media + simvastatin (0.04 μM) [1, 20]: 1.132 | Complete Media [1, 8]: 1.052 | Difference [1, 11]: −0.08 | Difference [2, 16]: 0.01 | Cholesterol-free [2, 17]: 1.039 | Complete [2, 18]: 1.047

C#C[C@]1(OC(C)=O)CC[C@H]2[C@@H]3CCC4=C[C@@H](OC(C)=O)CC[C@@H]4[C@H]3CC[C@@]21C [Ethynodiol diacetate]
Cholesterol-free media + simvastatin (0.04 μM) [1, 14]: 1.26 | Complete Media [1, 15]: 0.9323 | Difference [1, 11]: −0.33 | Difference [2, 21]: −0.50 | Cholesterol-free [2, 22]: 1.654 | Complete [2, 23]: 1.155

COc1ccc(C2C(=O)c3ccccc3C2=O)cc1 [Anisindione]
Cholesterol-free media + simvastatin (0.04 μM) [1, 20]: 1.296 | Complete Media [1, 8]: 1.617 | Difference [1, 5]: 0.32 | Cholesterol-free [2, 17]: 0.8915 | Complete [2, 18]: 1.35 | Difference [2, 19]: 0.46

O=C(O)/C=C/c1ccc(Cn2ccnc2)cc1 [Ozagrel]
Cholesterol-free media + simvastatin (0.04 μM) [1, 20]: 1.504 | Complete Media [1, 8]: 1.942 | Difference [1, 5]: 0.44 | Difference [2, 16]: −0.04 | Cholesterol-free [2, 17]: 1.079 | Complete [2, 18]: 1.034

CO/N=C(\C(=O)N[C@@H]1C(=O)N2C(C(=O)O)=C(Cn3ccc(=N)n3CCO)CS[C@H]12)c1csc(N)n1.O=S(=O)(O)O [Cefoselis (sulfate)]
Cholesterol-free media + simvastatin (0.04 μM) [1, 3]: 1.07 | Complete Media [1, 4]: 1.107 | Difference [1, 5]: 0.04 | Cholesterol-free [2, 17]: 0.955 | Complete [2, 18]: 1.116 | Difference [2, 19]: 0.16

Indacaterol (maleate)
Cholesterol-free media + simvastatin (0.04 μM) [1, 20]: 1.032 | Complete Media [1, 8]: 0.9157 | Difference ([1]; complete media vs cholesterol-free media + simvastatin (0.04 μM), […]): −0.12 | Difference ([2]; Complete minus Cholesterol-free, […]): −0.20 | Cholesterol-free [2, 12]: 1.314 | Complete ([2]; NCI-H292 cells, complete media): 1.116

CCc1cccc2c3c([nH]c12)C(CC)(CC(=O)O)OCC3 (centres unmarked) [Etodolac]
Cholesterol-free media + simvastatin (0.04 μM) [1, 20]: 0.9939 | Complete Media [1, 8]: 1.145 | Difference [1, 5]: 0.15 | Cholesterol-free [2, 12]: 1.251 | Complete ([2]; NCI-H292 cells, complete media): 0.9193 | Difference [2, 13]: −0.33

NC(=O)c1ccccc1O [Salicylamide]
Cholesterol-free media + simvastatin (0.04 μM) [1, 24]: 1.206 | Complete Media [1, 25]: 1.141 | Difference [1, 26]: −0.07 | Difference [2, 21]: −0.58 | Cholesterol-free [2, 22]: 1.486 | Complete [2, 23]: 0.907

C[C@@H]1O[C@@H]1P(=O)(O)O [Fosfomycin (calcium)]
Cholesterol-free media + simvastatin (0.04 μM) [1, 9]: 1.093 | Complete Media [1, 10]: 0.8864 | Difference [1, 11]: −0.21 | Difference [2, 16]: −0.27 | Cholesterol-free [2, 12]: 1.27 | Complete ([2]; NCI-H292 cells, complete media): 1.001

CNCC[C@H](Oc1cccc2ccccc12)c1cccs1 [Duloxetine (hydrochloride)]
Cholesterol-free media + simvastatin (0.04 μM) [1]: 1.089 | Complete Media [1]: 1.143 | Difference [1]: 0.05 | Cholesterol-free [2]: 1.331 | Complete [2]: 1.434 | Difference [2]: 0.10

COc1cc2c3cc1Oc1c(OC)c(OC)cc4c1[C@@H](Cc1ccc(O)c(c1)Oc1ccc(cc1)C[C@@H]3N(C)CC2)N(C)CC4 [Berbamine (dihydrochloride)]
Cholesterol-free media + simvastatin (0.04 μM) [1, 20]: 0.2857 | Complete Media [1, 8]: 1.04 | Difference ([1]; complete media minus cholesterol-free media + simvastatin, […]): 0.75 | Cholesterol-free [2, 12]: 1.782 | Complete ([2]; NCI-H292 cells, complete media): 1.401 | Difference ([2]; complete vs cholesterol-free media, […]): −0.38

CN(C)[C@@H]1C(O)=C(C(N)=O)C(=O)[C@@]2(O)C(O)=C3C(=O)c4c(O)ccc(Cl)c4[C@@H](O)[C@H]3C[C@@H]12 [Demeclocycline (hydrochloride)]
Cholesterol-free media + simvastatin (0.04 μM) [1, 24]: 1.054 | Complete Media [1, 25]: 1.04 | Difference [1, 26]: −0.01 | Difference [2, 21]: −0.59 | Cholesterol-free [2, 22]: 1.527 | Complete [2, 23]: 0.9395

Cc1cccc(C)c1NC(=O)C1CCCCN1C (centres unmarked) [Mepivacaine]
Cholesterol-free media + simvastatin (0.04 μM) [1, 14]: 1.558 | Complete Media [1, 15]: 0.984 | Difference [1, 11]: −0.57 | Difference [2, 6]: −0.09 | Cholesterol-free [2, 7]: 1.247 | Complete [2, 8]: 1.156

C[C@H](CCC(=O)O)[C@H]1CC[C@H]2[C@@H]3[C@H](O)C[C@@H]4C[C@H](O)CC[C@]4(C)[C@H]3CC[C@]12C [Chenodeoxycholic Acid]
Cholesterol-free media + simvastatin (0.04 μM) [1, 24]: 0.895 | Complete Media [1, 25]: 0.9061 | Difference [1, 26]: 0.01 | Cholesterol-free [2, 17]: 0.7972 | Complete [2, 18]: 1.211 | Difference [2, 19]: 0.41

CCOC(=O)C1=C(C)NC(C)=C(C(=O)OC)C1c1cccc([N+](=O)[O-])c1 (centres unmarked) [Nitrendipine]
Cholesterol-free media + simvastatin (0.04 μM) [1, 24]: 1.103 | Complete Media [1, 25]: 1.042 | Difference [1, 26]: −0.06 | Cholesterol-free [2, 12]: 1.587 | Complete ([2]; NCI-H292 cells, complete media): 1.208 | Difference [2, 13]: −0.38

NCCC(O)(P(=O)([O-])O)P(=O)([O-])O.O.O.O.O.O.[Na+].[Na+] [Pamidronate (disodium pentahydrate)]
Cholesterol-free media + simvastatin (0.04 μM) [1, 20]: 1.169 | Complete Media [1, 8]: 1.009 | Difference [1, 11]: −0.16 | Difference [2, 6]: −0.12 | Cholesterol-free [2, 7]: 1.305 | Complete [2, 8]: 1.183

C#C[C@]1(O)CC[C@H]2[C@@H]3CCC4=CCCC[C@@H]4[C@H]3C(=C)C[C@@]21CC [Desogestrel]
Complete Media [1, 15]: 1.022 | Difference [1, 11]: −0.60 | Difference [2, 16]: 0.06 | Cholesterol-free [2, 17]: 0.9017 | Complete [2, 18]: 0.9645

Cc1ccnc(NS(=O)(=O)c2ccc(N)cc2)n1 [Sulfamerazine]
Cholesterol-free media + simvastatin (0.04 μM) [1, 14]: 2.163 | Complete Media [1, 15]: 1.355 | Difference [1, 11]: −0.81 | Difference [2, 21]: −0.49 | Cholesterol-free [2, 22]: 1.498 | Complete [2, 23]: 1.009
